Results on two compounds are retold here after PMC8416643 (International Journal for Parasitology: Drugs and Drug …, 2021).

For series [1], the system named is N. caninum transgenic strain expressing β-galactosidase. Kind of series: In vitro proliferation of Nc-β-gal tachyzoites in HFF monolayers (β-galactosidase readout). The format is cell-based, Neospora caninum. The settings on record: compound added concomitantly to infection, 72 h. The protocol: In vitro efficacy assessments of ELQ-316, ELQ-334, ELQ-422, BKI-1748, and respective drug combinations were done using Nc-β-gal ([Barna et al., 2013]; [Schorer et al., 2012]). Briefly, HFF monolayers were cultured in 96-well plates and were infected with 10^3 Nc-β-gal tachyzoites in the presence of ELQ-316, ELQ-334, ELQ-422, and BKI-1748, as well as the combinations of BKI-1748 with each of the three ELQs. All drugs and combinations were prepared as serial dilutions of 20000, 2000, 200, 20, 2, 0.2, 0.02, 0.002 and 0.0002 nM in cell culture medium, respectively. The stock solutions of ELQs as well as the medium were heated up to 37 °C before use. After three days of culture (37 °C/5% CO2) in the presence of compounds, wells were washed with 200 μl PBS, and 90 μl of PBS containing 0.05% Triton X-100 were added into each well. After addition of 10 μl 5 mM chlorophenol red-β-D-galactopyranoside dissolved in PBS, the absorption shift was measured at a wavelength of 570 nm at various time points on an Enspire multilabel reader (Perkin Elmer, Waltham). The half-maximal effective concentrations (EC50 values) were calculated after the logit-log transformation of relative growth and subsequent regression analysis by use of the corresponding software tool contained in the Excel software package (Microsoft, Seattle, WA).

Details of series [2]: method as in Doggett et al., 2020. The conditions noted are these: ref Doggett et al., 2020; cited from earlier work.
Series [3] has as its system BALB/c mice. Kind of series: Assessment of potential interference in pregnancy in non-infected BALB/c mice. Format: in vivo. The settings on record: ELQs 10 mg/kg, BKI-1748 20 mg/kg; for Fertility: corn oil, gavage, days 9–13 of pregnancy, pregnant/total females. The method, then: Thirty-six BALB/c female and 18 male mice, six weeks of age were used. […] After mating, males were removed and female mice were randomly allocated to six experimental groups (six mice per group, two females per cage). […] The placebo group received 100 μl corn oil for five consecutive days. […] During the experimental period, mice were examined daily and weighed several times during pregnancy to determine the number of pregnant animals and to detect possible abortions (which would result in rapid weight loss). On day 18 post-mating, pregnant females were separated into individual cages, where they gave birth on days 20–22 post mating. Live and stillborn pups were counted, and dead pups removed. Data on the number of female mice that became pregnant, litter size (number of delivered pups per dam), stillborn mice (dead pups from birth until day two post-partum), post-natal mortality (dead pups from day three post-partum to the end of the experiment), and clinical signs of treated mice were recorded. Dams and live pups were monitored for two weeks after birth to rule out possible adverse effects due to treatments. At the end of the experiment, mice were euthanized in a euthanasia chamber using isoflurane and CO2.

Series [4] can be described thus: BKI-1748 and ELQ-316 concentration in BALB/c mouse plasma (LC-MS/MS). The format is in vivo. The settings on record: 1 h after final of 5 daily oral doses, ELQs 10 mg/kg, BKI-1748 20 mg/kg. The method, then:
Thirty-six BALB/c female and 18 male mice, six weeks of age were used. Female mice were oestrus synchronized during three days by the Whitten effect ([Whitten, 1957]), and mated for three nights by housing one male with two females. After mating, males were removed and female mice were randomly allocated to six experimental groups (six mice per group, two females per cage). […] The placebo group received 100 μl corn oil for five consecutive days. […] Live and stillborn pups were counted, and dead pups removed. Data on the number of female mice that became pregnant, litter size (number of delivered pups per dam), stillborn mice (dead pups from birth until day two post-partum), post-natal mortality (dead pups from day three post-partum to the end of the experiment), and clinical signs of treated mice were recorded. Dams and live pups were monitored for two weeks after birth to rule out possible adverse effects due to treatments. […]
BKI-1748 and ELQ-316 concentrations in mouse plasma samples were determined as previously described ([Hulverson et al., 2019]; [Imhof et al., 2021]). Briefly, BKI-1748 and ELQ-316 were extracted from plasma using acetonitrile/0.1% formic acid with an internal standard and a standard curve was prepared for quantification. […]

The test system of series [5] is N. caninum NcSp-7 tachyzoites. The settings on record: BKI-1748 20 mg/kg. The protocol: Ninety BALB/c female mice and 45 male mice, six weeks of age were used in this experiment. Oestrus synchronization and mating was performed as described above. After mating, (day 0) female mice were randomly assigned to seven groups: ELQ-334 (n = 14), ELQ-422 (n = 14), BKI-1748 (n = 14), ELQ-334 + BKI-1748 (n = 14), ELQ-422 + BKI-1748 (n = 14), positive control (corn oil treatment and infection, n = 14), and negative control (corn oil treatment without infection, n = 6). NcSp-7 tachyzoites were transferred from HFF cells to BALB/c dermal fibroblasts and maintained at 37 °C and 5% CO2 three days prior to infection ([Imhof et al., 2021]). On day 7, tachyzoites were harvested and prepared for infection as previously described ([Arranz-Solís et al., 2015]). In brief, tachyzoite-infected fibroblasts were recovered from culture flasks when they were >90% of intracellular tachyzoites still located in parasitophorous vacuoles, and infected cells were repeatedly passed through a 25-gauge needle at 4 °C. […] A sublethal dose of 10^5 tachyzoites in 100 μl were administered to each mouse by subcutaneous injection. The negative control group was inoculated with 100 μl dermal fibroblasts. From two days post-infection (day 9), compounds were administered in 100 μl corn oil on days nine to 13 of pregnancy, calculated after the first day of mating, as follows: ELQ-334 was administered at 5 mg/kg, ELQ-422 at 7.5 mg/kg, and BKI-1748 was administered at 20 mg/kg. The combined treatment groups were: ELQ-334 at 5 mg/kg + BKI-1748 at 20 mg/kg, and ELQ-422 at 7.5 mg/kg + BKI-1748 at 20 mg/kg. The positive and negative controls received 100 μl corn oil for five consecutive days. On day 18, pregnant females were separated into individual cages, they gave birth on days 20–22, and were allowed to rear their pups for 28 days until day 48–50. Live and stillborn pups were counted, and dead pups were removed, and the non-pregnant mice were also monitored during the following 30 days until day 50. Dams and their offspring were evaluated for clinical signs of disease, and data on the number of dams, stillborn pups and those dying postnatally were monitored. All mice were euthanized four weeks post-partum as described above. Blood was collected by cardiac puncture, centrifuged, and serum was stored at −20 °C for subsequent analysis of IgG1 and IgG2a levels by ELISA. Brain was collected and stored at −20 °C prior to further processing.
For the quantification of the brain parasite load in all the mice, a real-time PCR method designed for quantification of N. caninum DNA was employed ([Aguado-Martínez et al., 2019]; [Müller et al., 2002]). DNA extraction and purification were done with the NucleoSpin DNA RapidLyse Kit (Macherey-Nagel, Oensingen, Switzerland) employing the standard protocols. DNA concentrations in all samples were determined using the QuantiFluor double-stranded DNA (dsDNA) system (Promega, Madison, WI, USA) according to the manufacturer's instructions and adjusted to 5 ng/μl with sterile DNase-free water. Quantitative real-time PCR was performed using the Light Cycler (Roche, Basel, Switzerland), and parasite loads calculated with a standard curve of N. caninum DNA samples of 10, 100, and 1000 tachyzoites included in each run.
Levels of IgG1 and IgG2a in N. caninum infected mice were assessed by ELISA as described previously ([Debache et al, 2008], [2009]). Briefly, 96-well plates were coated with 200 ng NcSp-7 soluble tachyzoite protein extract diluted in coating buffer (50 mM sodium bicarbonate; 50 mM sodium carbonate both dissolved in ultrapure water; pH 9.6) per well.

The test system of series [6] is N. caninum NcSp-7 tachyzoites. Also on record: method as in Anghel et al., 2018. The settings on record: ref Anghel et al., 2018, cited from earlier work.
Another series has as its system T. gondii. The arrangement: method as in Doggett et al., 2020; Martynowicz et al., 2020. The conditions noted are these: persistently T. gondii infected mice, ref Doggett et al., 2020, Martynowicz et al.; cited from earlier work.
Series [7] relates to BALB/c mice. The settings on record: non-infected pregnant BALB/c, five times 10 mg/kg/day, pups from four dams; ref Anghel et al., 2018; cited from earlier work.

SMILES strings stand for the structures. “And” between values parts separate entries of the source, which are not always exact repeats. Equal entries are not always repeated. “Also recorded” adds a separate entry of the source. Where two headings read alike, the source gives them in different places.

By EC50 is commonly meant the concentration at which the effect is half-maximal. On to `COc1cc2[nH]c(C)c(-c3ccc(Oc4ccc(OC(F)(F)F)cc4)cc3)c(=O)c2cc1F` [ELQ-316], for which, in series [1], the half-maximal effective concentration (EC50) is 1.55 nM. Moreover, the Solubility entry in series [2] is given as “low solubility; also recorded: poor solubility”.

`CCOC(=O)Oc1c(-c2ccc(Oc3ccc(OC(F)(F)F)cc3)cc2)c(C)nc2cc(OC)c(F)cc12` [ELQ-334]: in series [1], the EC50 was found to be 54.2 nM. Besides, the Fertility with BALB/c mice [3] is 2/6; in the series with BALB/c mice [3] (listed as ELQ-344), “Two of six”. Besides, the Neonatal mortality result was “two out of 11 and 2/11” in the series on BALB/c mice [3] (gavage days 9–13, pups born dead or died within 2 days post-partum); “seven out of 44” in series [6] (N. caninum infected pregnant mice, 10 mg/kg/day, pups from 10 dams); “one out of 27” in the series with BALB/c mice [7]. Further, the Postnatal mortality in the series on BALB/c mice [3] (gavage days 9–13, pups that died during days 3–14 post-partum) is 1/9. In addition, the Pups per dam in the series on BALB/c mice [3] (gavage days 9–13 of pregnancy) is 11/2. Also, the “Plasma concentration ELQ-316” value in series [4] (non-pregnant mouse) is 11.16 µM and 15.81 µM and 13.24 µM; in series [4] (pregnant mouse), 12.71 µM and 18.58 µM. Also, in series [5] (infected dams, ELQ-334 5 mg/kg, ELQ-422 7.5 mg/kg, days 9–13), the “Pups: Litter size” value is given as 33. In series [5] (infected dams, ELQ-334 5 mg/kg, ELQ-422 7.5 mg/kg, brains from surviving pups), the “Pups: N. caninum PCR positive” value is recorded as 2/29. In addition, the “Vertical transmission of N. caninum to the pups” value in series [5] (infected dams, ELQ-334 5 mg/kg, ELQ-422 7.5 mg/kg, positive control 100%) was determined as 10.3%. Also, the “Inhibition of vertical transmission / pup infection” value in series [5] (infected dams, ELQ-334 5 mg/kg/day) was above 90%. The “Non-pregnant females: Clinical signs” value in series [5] (infected, ELQ-334 5 mg/kg, ELQ-422 7.5 mg/kg, days 9–13) is recorded as 0/8. Moreover, the “Dams: Total no.” value in series [5] (infected, ELQ-334 5 mg/kg, ELQ-422 7.5 mg/kg, days 9–13, pregnant/total females) is on record as 6/14. Also, the “Reduction of vertical transmission” value in series [6] (10 mg/kg/day) is recorded as 50%. Also, the “Cerebral parasite burden in non-pregnant mice compared to the placebo group” value in series [6] (10 mg/kg) is given as “not notably reduced”. For the same compound, in the series on T. gondii, the “Tissue cysts in the brain” value is on record as “dramatic reduction of tissue cyst in the brain”.
